Test results from patent US20080261994A1, “CYCLOPROPANE COMPOUNDS AND PHARMACEUTICAL USE THEREOF” (Japan Tobacco Inc., priority 2003, published 2008).
Like-named read-outs stand apart in the source and are kept apart here.

Tests used:
[1] = biological target: T1, aggrecanase-1 (Homo sapiens, UniProt O75173); assay: Aggrecanase-1 inhibitory action (Particle Assay, GAG release from aggrecan-containing polyacrylamide particles); type: biochemical
T1 sequence (O75173 213-837): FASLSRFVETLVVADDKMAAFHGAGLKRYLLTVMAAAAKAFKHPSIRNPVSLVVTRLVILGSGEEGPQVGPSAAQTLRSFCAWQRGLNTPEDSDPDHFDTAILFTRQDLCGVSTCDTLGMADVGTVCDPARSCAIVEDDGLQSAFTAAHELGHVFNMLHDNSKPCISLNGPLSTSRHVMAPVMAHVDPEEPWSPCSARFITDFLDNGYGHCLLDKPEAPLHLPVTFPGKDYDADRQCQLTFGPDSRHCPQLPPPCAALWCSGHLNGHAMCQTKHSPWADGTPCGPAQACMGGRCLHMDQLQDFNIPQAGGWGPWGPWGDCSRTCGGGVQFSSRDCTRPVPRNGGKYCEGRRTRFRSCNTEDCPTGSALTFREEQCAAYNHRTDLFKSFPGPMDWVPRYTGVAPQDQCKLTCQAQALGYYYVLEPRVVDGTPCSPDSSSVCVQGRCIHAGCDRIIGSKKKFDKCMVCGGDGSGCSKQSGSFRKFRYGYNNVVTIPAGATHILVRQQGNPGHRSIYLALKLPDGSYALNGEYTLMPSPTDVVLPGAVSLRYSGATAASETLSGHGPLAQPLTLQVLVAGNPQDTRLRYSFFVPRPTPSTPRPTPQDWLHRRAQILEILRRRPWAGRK
Description: Particle Assay was used for determination of aggrecanase activity.
(§1) The enzyme and substrate were diluted with Tris-HCl buffer, and test compounds were diluted with dimethyl sulfoxide (DMSO).
Test compounds and the enzyme were added into 96-well plate, and polyacrylamide particles containing aggrecan were added as a substrate and the mixture was incubated at 37° C. for 15 hr.
After incubation, the supernatant was transferred to another plate, and mixed with 1,9-dimethylmethylene blue. The absorbence at 595 nm was measured to quantify the amount of glycosaminoglycan (GAG) released in the reaction supernatant. Whale chondroitin sulfate was used as the standard of GAG. The inhibitory activity of the compound in each well (%) was calculated based on the values of enzyme-free well and inhibitor-free well. The inhibitory activity of the compound was represented as […] (μM).

[2] = biological target: T2, MMP-1 (Homo sapiens, UniProt P03956); assay: MMP-1 inhibitory action (Type I collagen Activity Measurement kit, FITC-labeled collagen type I); type: biochemical
T2 sequence (P03956 100-469): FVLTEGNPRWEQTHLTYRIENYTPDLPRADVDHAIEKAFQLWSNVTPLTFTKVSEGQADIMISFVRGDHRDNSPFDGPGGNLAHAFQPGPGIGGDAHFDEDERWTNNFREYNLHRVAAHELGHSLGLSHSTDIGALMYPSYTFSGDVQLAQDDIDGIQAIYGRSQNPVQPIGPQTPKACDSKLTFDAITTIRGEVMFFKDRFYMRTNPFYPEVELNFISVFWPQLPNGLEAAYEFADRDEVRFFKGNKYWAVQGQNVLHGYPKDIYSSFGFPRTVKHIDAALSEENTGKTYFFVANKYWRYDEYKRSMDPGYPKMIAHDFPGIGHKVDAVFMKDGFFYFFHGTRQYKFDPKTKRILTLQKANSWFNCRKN
Description: For MMP-1 Assay, Type I collagen Activity Measurement kit (YAGAI YU-72013) modified to a 96-well plate format was used.
The principle of the kit is based on the property of collagen that becomes soluble in ethanol after being cleaved by MMP-1.
as §1
The enzyme and test compounds were added into 96-well plate, and fluorescein isothiocianate (FITC)-labeled collagen type I was added as a substrate and the mixture was incubated at 37° C. for 3 hr.
The reaction was terminated by addition of Tris-HCl buffer containing ethanol. After centrifugation, the supernatant containing denatured substrate was transferred to another 96-well plate. The collagenase activity of MMP-1 was determined by measuring FITC fluorescence intensity (excitation wavelength 485 nm, emission wavelength 530 nm) of each well. The inhibitory activity of the compound in each well (%) was calculated based on the values of enzyme-free well and inhibitor-free well. The inhibitory activity of the compound was represented as IC50 (μM).

[3] = Experimental Example 1, read-out: IC50 AG1
[4] = Experimental Example 2, read-out: IC50 MMP1
[5] = aggrecanase-1 inhibitory action, read-out: IC50 AG1 (Experimental Example 1)
[6] = MMP-1 inhibitory action, FITC-labeled collagen type I, 37° C. for 3 hr, read-out: IC50 MMP1 (Experimental Example 2)

| Structure (SMILES) | IC50 [1, 3] | IC50 [2, 4] | IC50 [1, 5] | IC50 [2, 6] |
| --- | --- | --- | --- | --- |
| NC(=O)COc1cccc(C2CC2(NS(=O)(=O)c2ccc(-c3ccc(Cl)cc3)cc2)C(=O)O)c1 (stereo not drawn) [Example 1-117] |  |  | < 100 nM | ≥ 1000 nM |
| COc1cccc(C2CC2(NS(=O)(=O)c2ccc(-c3ccc(Cl)cc3)s2)C(=O)O)c1 (stereo not drawn) [Example 1-115] |  |  | < 1000 nM | ≥ 1000 nM |
| O=C(CO)Nc1cccc(C2CC2(NS(=O)(=O)c2ccc(-c3ccc(Cl)cc3)cc2)C(=O)O)c1 (stereo not drawn) [Example 1-105] |  |  | < 1000 nM | ≥ 1000 nM |
| NC(=O)c1cccc(C2CC2(NS(=O)(=O)c2ccc(-c3ccc(Cl)cc3)s2)C(=O)O)c1 (stereo not drawn) [Example 1-137] |  |  | < 1000 nM | ≥ 1000 nM |
| NC(=O)Nc1cccc(C2CC2(NS(=O)(=O)c2ccc(-c3ccc(Cl)cc3)s2)C(=O)O)c1 (stereo not drawn) [Example 1-135] |  |  | < 1000 nM | ≥ 1000 nM |
| O=C(COc1ccccc1C1CC1(NS(=O)(=O)c1ccc(-c2ccc(Cl)cc2)s1)C(=O)O)NCc1ccccc1 (stereo not drawn) [Example 1-145] |  |  | < 1000 nM | ≥ 10000 nM |
| CN(C)Cc1cccc(C2CC2(NS(=O)(=O)c2ccc(-c3ccc(Cl)cc3)s2)C(=O)O)c1 (stereo not drawn) [Example 1-98] |  |  | < 1000 nM | ≥ 10000 nM |
| COc1ccccc1C1CC1(NS(=O)(=O)c1ccc(-c2ccc(Cl)cc2)s1)C(=O)O (stereo not drawn) [Example 1-4] |  |  | < 100 nM | ≥ 1000 nM |
| COc1ccccc1C1CC1(NS(=O)(=O)c1ccc(-c2ccc(Cl)cc2)cc1)C(=O)O (stereo not drawn) [Example 1-13] |  |  | < 1000 nM | ≥ 1000 nM |
| O=C(O)C1(NS(=O)(=O)c2ccc(-c3ccc(Br)cc3)cc2)CC1c1ccccc1 (stereo not drawn) [Example 1-31] |  |  | < 1000 nM | ≥ 10000 nM |
| CN(C)c1cccc(C2CC2(NS(=O)(=O)c2ccc(-c3ccc(Cl)cc3)cc2)C(=O)O)c1 (stereo not drawn) [Example 1-21] |  |  | < 1000 nM | ≥ 1000 nM |
| CC(C)(C)OC(=O)N1CCC(Nc2cccc(C3CC3(NS(=O)(=O)c3ccc(-c4ccc(Cl)cc4)cc3)C(=O)O)c2)CC1 (stereo not drawn) [Example 1-42] |  |  | < 1000 nM | ≥ 1000 nM |
| O=C(O)C1(NS(=O)(=O)c2ccc(-c3ccc(Cl)cc3)cc2)CC1c1ccccc1Oc1ccccc1 (stereo not drawn) [Example 1-14] |  |  | < 1000 nM | ≥ 10000 nM |
| O=C(O)C1(NS(=O)(=O)c2ccc3c(c2)Cc2cc(F)ccc2-3)CC1c1ccccc1 (stereo not drawn) [Example 1-80] |  |  | < 100 nM | ≥ 10000 nM |
| O=C(O)[C@]1(NS(=O)(=O)c2ccc(-c3ccc(Cl)cc3)cc2)C[C@@H]1c1ccccc1 [Example 1, (1S,2R)-1-(4′-Chlorobiphenyl-4-sulfonylamino)-2-phenylcyclopropanecarboxylic acid] |  |  | < 1000 nM | ≥ 1000 nM |
| CNC(=O)COc1cccc(C2CC2(NS(=O)(=O)c2ccc(-c3ccc(Cl)cc3)cc2)C(=O)O)c1 (stereo not drawn) [Example 1-118] |  |  | < 100 nM | ≥ 1000 nM |
| O=C(O)[C@]1(NS(=O)(=O)c2ccc(-c3ccc(Cl)cc3Cl)s2)C[C@@H]1c1ccccc1 [Example 1-125] |  |  | < 100 nM | ≥ 10000 nM |
| O=C(O)[C@@]1(NS(=O)(=O)c2ccc(-c3ccc(Cl)cc3)cc2)C[C@H]1c1ccccc1 [Example 1-7] |  |  | < 1000 nM | ≥ 10000 nM |
| O=C(O)C1(NS(=O)(=O)c2ccc(-c3ccc(Cl)cc3)s2)CC1c1cccc(O)c1 (stereo not drawn) [Example 1-116] |  |  | < 1000 nM | ≥ 1000 nM |
| O=C(O)C1(NS(=O)(=O)c2ccc(OCc3ccc(Cl)cc3Cl)cc2)CC1c1ccccc1 (stereo not drawn) [Example 1-65] |  |  |  | ≥ 10000 nM |
| O=C(O)C1(NS(=O)(=O)c2ccc(-c3ccc(Cl)cc3)cc2)CC1c1cccc(NCc2ncc[nH]2)c1 (stereo not drawn) [Example 1-112] |  |  | < 1000 nM | ≥ 1000 nM |
| CN1CCC(N(C)Cc2cccc(C3CC3(NS(=O)(=O)c3ccc(-c4ccc(Cl)cc4)s3)C(=O)O)c2)CC1 (stereo not drawn) [Example 1-104] |  |  | < 1000 nM | ≥ 10000 nM |
| Cn1ccnc1CNc1cccc(C2CC2(NS(=O)(=O)c2ccc(-c3ccc(Cl)cc3)cc2)C(=O)O)c1 (stereo not drawn) [Example 1-101] |  |  | < 1000 nM | ≥ 10000 nM |
| O=C(O)[C@]1(NS(=O)(=O)c2cnc(-c3ccc(Cl)cc3)s2)C[C@@H]1c1ccccc1 [Example 1-100] |  |  | < 1000 nM | ≥ 1000 nM |
| O=C(O)[C@]1(NS(=O)(=O)c2ccc(-c3cccc(Cl)c3)s2)C[C@@H]1c1ccccc1 [Example 1-110] |  |  | < 1000 nM | ≥ 1000 nM |

The remaining lines, values ahead:

| IC50 [1, 3] | IC50 [2, 4] | IC50 [1, 5] | IC50 [2, 6] | Structure (SMILES) |
| --- | --- | --- | --- | --- |
| ≥ 1000 nM | ≥ 10000 nM |  |  | Cc1nc2cc(-c3ccc(S(=O)(=O)N[C@@]4(C(=O)O)C(C)[C@@H]4c4ccccc4)s3)ccc2s1 (stereo partly drawn) [Example 2-469] |
|  |  | ≥ 10000 nM |  | O=C1O[C@H]([C@H]2C[C@@]2(NS(=O)(=O)c2ccc(-c3ccc(Cl)cc3)s2)C(=O)O)CN1Cc1ccccc1 [Example 2-138] |
|  |  | ≥ 1000 nM | < 1000 nM | O=C(O)[C@]1(NS(=O)(=O)c2ccc(-c3cc4ccccc4o3)s2)C[C@@H]1c1ccccc1 [Example 2-122] |
| ≥ 1000 nM |  |  |  | COc1ccc(-c2ccc(S(=O)(=O)N[C@@]3(C(=O)O)C[C@]3(C)c3ccccc3)s2)cc1CO [Example 2-592] |
| ≥ 1000 nM | ≥ 1000 nM |  |  | Cc1cnc(-c2ccc(S(=O)(=O)N[C@@]3(C(=O)O)C[C@]3(C)c3ccccc3)s2)o1 [Example 2-418] |
|  |  | < 1000 nM | ≥ 10000 nM | Cc1cnc(-c2ccc(S(=O)(=O)N[C@@]3(C(=O)O)C[C@@H]3c3ccccc3)s2)s1 [Example 2-26] |
| ≥ 1000 nM |  |  |  | C[C@]1(c2ccccc2)C[C@@]1(NS(=O)(=O)c1ccc(-c2cccc(OCCO)c2)s1)C(=O)O [Example 2-575] |
| ≥ 1000 nM | ≥ 10000 nM |  |  | CC(=O)Nc1ccc(-c2ccc(S(=O)(=O)N[C@@]3(C(=O)O)C[C@]3(C)c3ccccc3)s2)cc1 [Example 2-402] |
|  |  | ≥ 1000 nM | ≥ 1000 nM | O=C(O)[C@]1(NS(=O)(=O)c2ccc(-c3csc4ccccc34)s2)C[C@@H]1c1ccccc1 [Example 2-118] |
|  |  | < 1000 nM | ≥ 10000 nM | O=C(O)C1(NS(=O)(=O)c2ccc(-c3ccc(Cl)cc3)s2)CC1c1cccnc1 (stereo not drawn) [Example 2-70] |
| < 100 nM |  |  |  | CC1[C@](C)(c2ccccc2)[C@]1(NS(=O)(=O)c1ccc(-c2cc(C(C)(F)F)on2)s1)C(=O)O (stereo partly drawn) [Example 2-625] |
| < 1000 nM | ≥ 1000 nM |  |  | CC1[C@H](c2ccccc2)[C@]1(NS(=O)(=O)c1ccc(-c2nc3cc(Cl)ccc3[nH]2)s1)C(=O)O (stereo partly drawn) [Example 2-604] |
| < 100 nM |  |  |  | COc1cccc([C@@]2(C)C[C@@]2(NS(=O)(=O)c2ccc(-c3cc(C(F)(F)F)on3)s2)C(=O)O)c1 [Example 2-624] |
| < 1000 nM | ≥ 1000 nM |  |  | CC1[C@H](c2ccccc2)[C@]1(NS(=O)(=O)c1ccc(-c2ccc3[nH]c(=O)sc3c2)s1)C(=O)O (stereo partly drawn) [Example 2-468] |
| ≥ 1000 nM | ≥ 10000 nM |  |  | O=C1NCc2ccccc2C2CC12NS(=O)(=O)c1ccc(-c2ccc(Cl)cc2)s1 (stereo not drawn) [Example 2-415] |
|  |  | ≥ 10000 nM | ≥ 10000 nM | O=C(O)C1(NS(=O)(=O)N2CCc3nc(-c4ccccc4)ncc3C2)CC1c1ccccc1 (stereo not drawn) [Example 2-127] |
|  |  | < 1000 nM | < 1000 nM | O=C(O)[C@]1(NS(=O)(=O)c2ccc(-c3ccc(C(F)F)s3)s2)C[C@@H]1c1ccccc1 [Example 2-102] |
|  |  | < 1000 nM | ≥ 10000 nM | O=C(O)C1(NS(=O)(=O)c2ccc(-c3ccc(Cl)cc3)s2)CC1c1ccccc1Br (stereo not drawn) [Example 2-167] |
| ≥ 1000 nM |  |  |  | C[C@]1(c2ccccc2)C[C@@]1(NS(=O)(=O)c1ccc(-c2cccc(OCCCO)c2)s1)C(=O)O [Example 2-576] |
